Results on three molecules are retold here after patent publication US20250280827A1, “An antifungal composition comprising natamycin and at least one insecticide” (priority 2021, published 2025).

Read-outs that look alike come from different tables or passages of the source.

The subject of one assay is Colletotrichum spp. The assay is described as follows: Antifungal effect against Colletotrichum infection on wounded skin of pepper fruits (Colby synergy). The format is in vivo. The note with it: 5 days after inoculation. The source says:
wherein X and Y are the observed antifungal activities (in %) of the individual active ingredients x and y, respectively. If the observed antifungal activity (O in %) of the combination exceeds the expected antifungal activity (E in %) of the combination and the synergy factor O/E is thus >1.0, the combined application of the active ingredients leads to a synergistic antifungal effect. […]
For the treatment, 5 wounds per pepper side were done as previously described. In addition, one wound was done as negative control. Depending on the number of sides of the pepper, 3 to 4 treatments were done per paprika. Per wound 10 μl of treatment was placed on the wound. The treatments were let to dry in a down flow cabinet for about 30 minutes. After drying 5 μl spore suspension at a concentration of 10^7 spores per ml were placed on the wounds. The fungus was isolated from Colletotrichum-infected plant material and identified using techniques known to the person skilled in the art. The pepper were placed as described previously in a transparent container, with the difference that the containers were then placed in a transparent plastic zipper bag. The bags with peppers were placed at room temperature and in the dark for two days. After that the size of the lesions were measured. Assessment of the infection area was 4 days after inoculation. Experiment was performed in 5-fold.
The fungus was isolated from Colletotrichum-infected plant material and identified using techniques known to the person skilled in the art. Assessment of the infection area was performed 5 days after inoculation. Experiment was performed in 5-fold.
The active ingredient imidacloprid was formulated as described in Table 2. Imidacloprid belonging to IRAC Group 4. The fungus was isolated from Colletotrichum-infected plant material and identified using techniques known to the person skilled in the art. Assessment of the infection area was performed 5 days after inoculation. Experiment was performed in 5-fold.
The fungus was isolated from Colletotrichum-infected plant material and identified using techniques known to the person skilled in the art. Assessment of the efficacy was 5 days after inoculation. Experiment was performed in 5-fold.
The fungus was isolated from Colletotrichum-infected plant material and identified using techniques known to the person skilled in the art. Assessment of the infection area was performed 6 days after inoculation. Experiment was performed in 5-fold.
The fungus was isolated from Colletotrichum-infected plant material and identified using techniques known to the person skilled in the art. Assessment of the infection area was performed 4 days after inoculation. Experiment was performed in 5-fold.

Another assay relates to Botrytis cinerea. The assay is described as follows: Antifungal effect against Botrytis cinerea infection on wounded peel of banana fruits (Colby synergy). The format is in vivo. The source says: (§1) wherein X and Y are the observed antifungal activities (in %) of the individual active ingredients x and y, respectively. If the observed antifungal activity (O in %) of the combination exceeds the expected antifungal activity (E in %) of the combination and the synergy factor O/E is thus >1.0, the combined application of the active ingredients leads to a synergistic antifungal effect.
(§2) Application: The broad bean pods were washed under tap water, and were subsequently surface sterilized by placing them in a 0.1% sodium hypochlorite solution for 5 minutes. The pods were then rinsed with tap water and dried. Transparent plastic containers were prepared by placing a piece of absorbing paper in the container and adding 25 ml of water, one container per treatment was used. The pods were cut in two, and two halve pods were incubated per box. The skin of broad bean pods was damaged with a needle, ø 2 mm and to a depth of about 3 mm into the fruit, with—depending on the size of the pod—2 to 4 wounds per half pod. In total, 6 wounds were incubated per treatment, of which 1 was used as a control. A volume of 20 microliter of a natamycin/insecticide composition, as presented herein above, was applied by pipette to each wound. The treatments were then left to air-dry. Once dried, a mycelium plug of Sclerotinia sclerotiorum was placed upside down on each wound, so that the mycelium was in direct contact with the wound. Per treatment 5 wounds were inoculated with the fungus, while the 6th and last wound was used as negative non-inoculated control. After inoculation, the containers were directly closed with a transparent plastic lid.
The infection area was measured 5 days after inoculation.
A few changes were made for the banana experiments: 5 wounds per banana were made, on each wound 40 microliter of treatments was pipetted. The treatments were then left to air-dry. Once dried, 2 microliter of a freshly prepared inoculum was pipetted on four of the wounds. The inoculum consists of […] potato dextrose broth (PDB) medium containing Botrytis cinerea spores at a concentration of 10^6 spores per ml. The fifth wound was used as negative non-inoculated control. Experiment was performed in 4-fold.
Assessment of the infection area was performed 3 days after inoculation. Experiment was performed in 4-fold.
Imidacloprid was formulated as described in Table 2. Assessment of the efficacy was 5 days after inoculation. Experiment was performed in 4-fold.

A further assay relates to Fusarium culmorum. Put plainly: Antifungal effect against Fusarium culmorum on PDA petri dishes (fungal growth area, Colby synergy). The format is cell-based. Conditions: 6 days after inoculation, Table 6.
Text: (§3) The Colby equation (Colby, 1967. Weeds 15:20-22) calculates the expected antifungal activity (E in %) of a combination comprising more than one active ingredients:
as §1
(§4) Agar medium was prepared by mixing in a 100 ml Duran bottle 3.9 g of potato dextrose agar (PDA) from Carl-Roth (Carl-Roth GmbH+Co. KG, Karlsruhe, Germany) with 100 ml deionized water and autoclaving the Duran bottle at 120° C. for 15 minutes. After autoclaving, the solution was cooled by putting it in a 48° C. oven for about two hours. Afterward the semi-liquid PDA solution was carefully mixed with natamycin and/or insecticide dosages as specified in Table 5 showing the interaction results on petri dishes. The medium in the Duran bottle was divided over 5 petri dishes (90×15 mm), 20 ml per petri dish by using 25 ml serological pipets (ROTILABO®; Carl-Roth). Each natamycin and/or insecticide treatment was performed in fivefold.
(§5) Fungal spore suspensions were prepared by drenching a fully grown petri dish with sterile water. The fungus was scraped off and filtered through a Miracloth (pore size: 22-25 μm) (Merck KGaA, Darmstadt, Germany; catalogue number: 475855). The number of spores were counted with a hemocytometer and fungal suspension was adjusted to 10^6 spores per ml. Afterward, 5 μl of prepared spore suspension was pipetted on the center of the agar plate. The plates were incubated at 25° C. Measurement of the fungal growth was done using callipers at different time points. Assessment of the infection area was 6 days after inoculation.
(§6) The insecticide levels and the period after which the assessments were made are presented as specified for the different insecticides are presented in Table 5 below. Synergistic calculation was done using the Colby equation. Experiment was performed in 5-fold.
The experiments were performed as described in Example 3. Assessment of the infection area was 6 days after inoculation. Experiment was performed in 5-fold.
The experiments were performed as described in Example 3. The product KARATE ZEON® of company Syngenta containing the active ingredient lambda-cyhalothrin belonging to IRAC Group 3 was tested. Assessment of the infection area was 3 days after inoculation. Experiment was performed in 5-fold.

In a further assay the test system is Fusarium graminerum. The format is cell-based. Conditions: 6 days after inoculation, Table 5.
Text: as §3, §1, §4, §5, §6
The experiments were performed as described in Example 3. The product KARATE ZEON® of company Syngenta containing the active ingredient lambda-cyhalothrin belonging to IRAC Group 3 was tested. Assessment of the infection area was 6 days after inoculation. Experiment was performed in 5-fold.

In another assay the test system is Sclerotinia sclerotiorum. The assay is described as follows: Antifungal effect against Sclerotinia sclerotiorum infection on wounded skin of broad bean pods (rot area, Colby synergy). It counts as in vivo. The note with it: 23 h after inoculation, Table 4.
Text: as §3, §1
• 1) Control (without natamycin and lambda-cyhalothrin) • 2) Natamycin at a level of 15 ppm • 3) Lambda-cyhalothrin (in the product KARATE ZEON® of Syngenta) at a levels of 0.15 ppm, 0.6 ppm, 3 ppm and 15 ppm • 4) Natamycin at a level of 15 ppm combined with lambda-cyhalothrin at levels of 0.15 ppm, 0.6 ppm, 3 ppm or 15 ppm.
Used pathogen: Sclerotinia sclerotiorum.
as §2
All pods were kept at room temperature (20° C.). Wounds of the pods were checked after 30 h of incubation.
Replicates: All treatments for the broad bean pod experiment were performed on two individual pod halves resulting in 5 wounds per treatment, while a sixth wound served as control.
The experiments were performed as described in Example 1.
The experiments were performed as described in Example 1. Assessment of the infection area was 23 h after inoculation. Experiment was performed in 5-fold.
The experiments were performed as described in Example 1. Thiamethoxam belongs to IRAC Group 4. Assessment of the infection area was 31 hours after inoculation. Experiment was performed in 5-fold.
The experiments were performed as described in Example 1. The product SPECTRE® of company (Adama) containing the active ingredient chlorfenapyr belonging to IRAC Group 13 was tested. Assessment of the infection area was 23 hours after inoculation. Experiment was performed in 5-fold.

Where [1] appears, read: natamycin-insecticide 0:0.01 ppm, Table 15.
Setting [2] is: natamycin-insecticide 0:0.04 ppm, Table 15.
Where [3] appears, read: natamycin-insecticide 0:1 ppm, Table 15.
Where [4] appears, read: natamycin-insecticide 0:0.004 ppm, 3 days after inoculation, Table 14B.
The mark [5] stands for this setting: natamycin-insecticide 0:0.01 ppm, 3 days after inoculation, Table 14A.
Where [6] appears, read: natamycin-insecticide 0:0.04 ppm, 3 days after inoculation, Table 14A.
[7] abbreviates: natamycin-insecticide 0:1 ppm, 3 days after inoculation, Table 14A.
Setting [8] is: natamycin-insecticide 0-0.05 ppm.
[9] abbreviates: natamycin-insecticide 0-0.1 ppm.
Where [10] appears, read: natamycin-insecticide 0-0.2 ppm.
Where [11] appears, read: natamycin-insecticide 0-0.5 ppm.
[12] abbreviates: natamycin-insecticide 0-0.15 ppm.
The mark [13] stands for this setting: natamycin-insecticide 0-0.6 ppm.
[14] abbreviates: natamycin-insecticide 0:0.01 ppm, Table 16.
[15] abbreviates: natamycin-insecticide 0:0.04 ppm, Table 16.
[16] abbreviates: natamycin-insecticide 0:0.004 ppm, 5 days after inoculation, Table 18B.
The mark [17] stands for this setting: natamycin-insecticide 0:0.01 ppm, 5 days after inoculation, Table 18A.
[18] abbreviates: natamycin-insecticide 0:0.04 ppm, 5 days after inoculation, Table 18A.
[19] abbreviates: natamycin-insecticide 0:1 ppm, 5 days after inoculation, Table 18A.

`CC1(C)[C@H](C(=O)O[C@H](C#N)c2cccc(Oc3ccccc3)c2)[C@@H]1C=C(Cl)Cl` [alpha-cypermethrin, [(S)-cyano-(3-phenoxyphenyl)methyl] (1R,3R)-3-(2,2-dichloroethenyl)-2,2-dimethylcyclopropane-1-carboxylate]: the Avg infected area in the assay on Colletotrichum spp. (setting [1]) is reported as 44.8 mm2; with Colletotrichum spp. (setting [2]), 22.5 mm2; in the assay on Colletotrichum spp. (setting [3]), 20.6 mm2; with Botrytis cinerea (setting [4]), 6.2 mm2; in the assay with Botrytis cinerea (setting [5]), 9.0 mm2; in the assay on Botrytis cinerea (setting [6]) it was 9.1 mm2. For the same molecule, in the assay on Botrytis cinerea (setting [7]), the Avg infected area was 9.9 mm2. For the same molecule, the Observed antifungal activity in the assay on Colletotrichum spp. (setting [1]) is −6.1%; in the assay on Colletotrichum spp. (setting [2]), 46.7%; in the assay with Colletotrichum spp. (setting [3]) it was 51.2%; in the assay on Botrytis cinerea (setting [4]), 37.2%; in the assay with Botrytis cinerea (setting [5]), 20.5%; with Botrytis cinerea (setting [6]) it was 19.8%. Further, the Observed antifungal activity with Botrytis cinerea (setting [7]) stood at 12.8%.
As for `CCOC(=O)/C=C(C)/C=C/CC(C)CCCC(C)C` (stereo not drawn) [hydroprene], the Avg infected area in the assay on Fusarium culmorum (setting [8]) stood at 934.7 mm2; in the assay with Fusarium culmorum (setting [9]), 1010.5 mm2; with Fusarium culmorum (setting [10]), 1014.3 mm2; in the assay on Fusarium culmorum (setting [11]) it was 1060.2 mm2; with Fusarium graminerum (setting [8]) it was 1124 mm2; in the assay on Fusarium graminerum (setting [9]), 1142.1 mm2. The Avg infected area in the assay with Fusarium graminerum (setting [10]) is 970.5 mm2; with Fusarium graminerum (setting [11]), 1055.1 mm2; in the assay with Sclerotinia sclerotiorum (setting [12]) it was 99.3 mm2; in the assay with Sclerotinia sclerotiorum (setting [13]), 103.1 mm2; in the assay on Sclerotinia sclerotiorum (natamycin-insecticide 0-3 ppm), 74.5 mm2; in the assay with Sclerotinia sclerotiorum (natamycin-insecticide 0-15 ppm), 89 mm2. Further, the Observed antifungal activity in the assay on Fusarium culmorum (setting [8]) is given as 6.4%; in the assay on Fusarium culmorum (setting [9]), −1.2%; in the assay on Fusarium culmorum (setting [10]), −1.6%; with Fusarium culmorum (setting [11]) it was −6.2%; in the assay on Fusarium graminerum (setting [8]) it was 1.0%; in the assay on Fusarium graminerum (setting [9]) it was −0.6%. The Observed antifungal activity with Fusarium graminerum (setting [10]) turned out to be 14.5%; in the assay with Fusarium graminerum (setting [11]), 7.1%; in the assay on Sclerotinia sclerotiorum (setting [12]), 36.6%; with Sclerotinia sclerotiorum (setting [13]) it was 34.2%; with Sclerotinia sclerotiorum (natamycin-insecticide 0-3 ppm), 52.5%; in the assay with Sclerotinia sclerotiorum (natamycin-insecticide 0-15 ppm), 43.2%.
Turning to `O=[N+]([O-])NC1=NCCN1Cc1ccc(Cl)nc1` [imidacloprid, N-[1-[(6-chloropyridin-3-yl)methyl]-4,5-dihydroimidazol-2-yl]nitramide], the Avg infected area is 18.5 mm2 with Colletotrichum spp. (setting [14]); 23.3 mm2 in the assay with Colletotrichum spp. (setting [15]); 27.9 mm2 in the assay with Colletotrichum spp. (natamycin-insecticide 0:1 ppm, Table 16); 16.6 mm2 in the assay with Botrytis cinerea (setting [16]); 35.6 mm2 with Botrytis cinerea (setting [17]); 53.2 mm2 with Botrytis cinerea (setting [18]). The Avg infected area in the assay on Botrytis cinerea (setting [19]) is on record as 32.4 mm2. For the same molecule, the Observed antifungal activity in the assay on Colletotrichum spp. (setting [14]) is listed as 56.3%; in the assay on Colletotrichum spp. (setting [15]) it was 44.7%; with Botrytis cinerea (setting [16]) it was 43.3%; with Botrytis cinerea (setting [17]) it was 27.6%; in the assay with Botrytis cinerea (setting [18]) it was −8.3%; in the assay with Botrytis cinerea (setting [19]), 34.1%.
